From ChEMBL document CHEMBL3352419, “Antiprotozoal activity of 8-acyl and 8-alkyl incomptine A analogs” (Bioorg Med Chem Lett, 2014) come the findings set out here.

One test relates to Giardia intestinalis. The test can be described thus: Antiprotozoal activity against Giardia lamblia IMSS: 8909:1 trophozoites assessed as growth inhibition compound treated for 48 hrs measured 48 hrs post wash-out by MTT assay. The conditions noted are these: Giardia duodenalis, IMSS: 8909:1, 48 h. The class given is functional, organism-based.
The subject of a further test is Entamoeba histolytica. Put plainly: Antiprotozoal activity against Entamoeba histolytica HM-1:IMSS trophozoites assessed as growth inhibition compound treated for 48 hrs measured 48 hrs post wash-out by MTT assay. The format is functional, organism-based. (In general: Tetrazolium assays rely on reduction of a dye to a coloured formazan, in cell work by metabolically active cells.)

Values after ≈ are worked out from the molar mass of the structure shown.

In the case of `C=C1C(=O)O[C@H]2/C=C(C)\C=C/[C@H]3O[C@]3(C)C[C@@H](OCC)[C@@H]12`, the IC50 (in general, the concentration needed to halve the response being measured) is 43.8 µg/mL (≈ 151 µM) in the test with Giardia intestinalis and 31.9 µg/mL (≈ 110 µM) in the test on Entamoeba histolytica.
Take `C=C(C)C(=O)O[C@@H]1C[C@@]2(C)O[C@@H]2/C=C\C(C)=C/[C@@H]2OC(=O)C(=C)[C@@H]21`: the values for the IC50 in the test with Giardia intestinalis and in the test on Entamoeba histolytica were 44.2 µg/mL (≈ 134 µM) and 32.7 µg/mL (≈ 99 µM), respectively.
On to `C=C1C(=O)O[C@H]2/C=C(C)\C=C/[C@H]3O[C@]3(C)C[C@@H](OC(=O)CCC)[C@@H]12`, for which the IC50 in the test on Giardia intestinalis amounted to 51.7 µg/mL (≈ 156 µM); with Entamoeba histolytica, 49.1 µg/mL (≈ 148 µM).
For `C=C1C(=O)O[C@H]2/C=C(C)\C=C/[C@H]3O[C@]3(C)C[C@@H](OC(=O)CC)[C@@H]12`, the IC50 with Giardia intestinalis was 68.8 µg/mL (≈ 216 µM); in the test with Entamoeba histolytica, 51.6 µg/mL (≈ 162 µM).
On to `C=C1C(=O)O[C@H]2/C=C(C)\C=C/[C@H]3O[C@]3(C)C[C@@H](OC(=O)CCCC)[C@@H]12`, for which the results for the IC50 in the test on Giardia intestinalis and in the test on Entamoeba histolytica were 58.3 µg/mL (≈ 168 µM) and 51.7 µg/mL (≈ 149 µM), respectively.
On the same counts, the results for `C=C1C(=O)O[C@H]2/C=C(C)\C=C/[C@H]3O[C@]3(C)CC(=O)[C@@H]12` are 30.6 µg/mL (≈ 118 µM) and 34.9 µg/mL (≈ 134 µM).
Turning to `C=C1C(=O)O[C@H]2/C=C(C)\C=C/[C@H]3O[C@]3(C)C[C@@H](OC)[C@@H]12`, the IC50 in the test on Giardia intestinalis is 35.2 µg/mL (≈ 127 µM); in the test on Entamoeba histolytica it was 29.4 µg/mL (≈ 106 µM).
As for `C=C1C(=O)O[C@H]2/C=C(C)\C=C/[C@H]3O[C@]3(C)C[C@@H](OC(C)=O)[C@@H]12`, the IC50 in the test with Giardia intestinalis is 18.1 µg/mL (≈ 59.5 µM); with Entamoeba histolytica it was 2.6 µg/mL (≈ 8.54 µM).
For the molecule `C=C1C(=O)O[C@H]2/C=C(C)\C=C/[C@H]3O[C@]3(C)C[C@@H](OCCC)[C@@H]12`, the values for the IC50 in the test on Giardia intestinalis and with Entamoeba histolytica were 31.2 µg/mL (≈ 103 µM) and 35.9 µg/mL (≈ 118 µM), respectively.
For the molecule `C=C1C(=O)O[C@H]2/C=C(C)\C=C/[C@H]3O[C@]3(C)C[C@@H](OC(=O)C(C)C)[C@@H]12`, the IC50 with Giardia intestinalis was 62.2 µg/mL (≈ 187 µM); with Entamoeba histolytica, 52.7 µg/mL (≈ 159 µM).
Turning to `C=C1C(=O)O[C@H]2/C=C(C)\C=C/[C@H]3O[C@]3(C)C[C@@H](O)[C@@H]12`, the IC50 with Giardia intestinalis stood at 257 µg/mL (≈ 979 µM); in the test with Entamoeba histolytica, 138 µg/mL (≈ 525 µM).
Turning to `C=C1C(=O)O[C@H]2/C=C(C)\C=C/[C@H]3O[C@]3(C)C[C@@H](OC(C)C)[C@@H]12`, the IC50 in the test with Giardia intestinalis was 32.7 µg/mL (≈ 107 µM); in the test with Entamoeba histolytica, 28.7 µg/mL (≈ 94.3 µM).
`C=C1C(=O)O[C@H]2/C=C(C)\C=C/[C@H]3O[C@]3(C)C[C@@H](OC(=O)C(F)(F)F)[C@@H]12`: the IC50 in the test on Giardia intestinalis stood at 43.3 µg/mL (≈ 121 µM); in the test on Entamoeba histolytica, 37.7 µg/mL (≈ 105 µM).
